Assay results from ChEMBL document CHEMBL1138905, “Design, synthesis, and biological evaluation of indole derivatives as novel nociceptin/orphanin FQ (N/OFQ) receptor antagonists” (Bioorg Med Chem Lett, 2006).

Tests used:
[1] = biological target: T1, Nociceptin receptor (Homo sapiens, UniProt P41146); assay: Displacement of [125I][Tyr14]N/OFQ from ORL1 receptor transfected in CHO cells at 1 uM; assay type: cell-based
[2] = biological target: T1, Nociceptin receptor; assay: Displacement of [125I][Tyr14]N/OFQ from ORL1 receptor transfected in CHO cells; assay type: cell-based
[3] = biological target: T1, Nociceptin receptor; assay: Antagonist activity against ORL1 receptor by GTPgammaS assay; assay type: functional

T1 sequence (P41146 whole entry): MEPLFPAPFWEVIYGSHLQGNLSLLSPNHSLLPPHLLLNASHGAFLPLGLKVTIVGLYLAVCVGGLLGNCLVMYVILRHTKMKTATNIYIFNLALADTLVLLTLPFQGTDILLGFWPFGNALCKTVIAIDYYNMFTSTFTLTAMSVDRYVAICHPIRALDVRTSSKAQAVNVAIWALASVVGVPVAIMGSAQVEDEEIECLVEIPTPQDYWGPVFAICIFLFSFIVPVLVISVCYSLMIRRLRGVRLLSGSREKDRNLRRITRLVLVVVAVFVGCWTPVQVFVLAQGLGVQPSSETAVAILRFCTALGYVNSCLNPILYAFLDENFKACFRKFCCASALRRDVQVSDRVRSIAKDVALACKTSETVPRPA

inhibition [1] | IC50 [2] | IC50 [3] | Structure (SMILES)
0% | > 1000 nM |  | CN(C)CCc1cccc2[nH]c(-c3nc(CCCN4CCCC4)no3)cc12
37% | > 1000 nM |  | CN(C)CCc1cccc2[nH]c(-c3ncc(CCc4ccc(Cl)cc4)o3)cc12
 | 210 nM |  | CN(C)CCCc1cccc2[nH]c(-c3nc(CCc4ccc(Cl)cc4)no3)cc12
 | 97 nM | 450 nM | CN(C)CCOCCc1cccc2[nH]c(-c3nc(CCc4ccc(Cl)cc4)no3)cc12
18% | > 1000 nM |  | CN(C)CCc1cccc2[nH]c(C(=O)NCCc3ccc(Cl)cc3)cc12
44% | > 1000 nM |  | CN(C)CCc1cccc2[nH]c(-c3nc(CCc4ccc(N(C)C)cc4)no3)cc12
3% | > 1000 nM |  | CN(C)CCc1ccc2[nH]c(-c3nc(CCc4ccc(Cl)cc4)no3)cc2c1
22% | > 1000 nM |  | CN(C)CCc1ccc2cc(-c3nc(CCc4ccc(Cl)cc4)no3)[nH]c2c1
29% | > 1000 nM |  | CC(C)CCc1noc(-c2cc3c(CCN(C)C)cccc3[nH]2)n1
 | 410 nM |  | CN(C)CCc1cccc2[nH]c(-c3nc(COc4ccc(Cl)cc4)no3)cc12
31% | > 1000 nM |  | CN1CCCC1c1ccc2[nH]c(-c3nc(CCc4ccc(Cl)cc4)no3)cc2c1C1CCCN1C (centres undefined)
 | 95 nM | 632 nM | CN(C)CCc1cccc2[nH]c(-c3nc(CCc4ccc(Cl)cc4)no3)cc12
14% | > 1000 nM |  | CCCc1noc(-c2cc3c(CCN(C)C)cccc3[nH]2)n1
 | 600 nM |  | CN(C)CCc1cccc2[nH]c(-c3noc(CCc4ccc(Cl)cc4)n3)cc12
18% | > 1000 nM |  | CN(C)CCc1cccc2cc(-c3nc(CCc4ccc(Cl)cc4)no3)[nH]c12
11% | > 1000 nM |  | CN(C)CCc1cccc2[nH]c(-c3nc(CCC4CCOCC4)no3)cc12
 | 440 nM |  | CN(C)CCc1cccc2[nH]c(-c3nc(CCC4CC5CCC4C5)no3)cc12 (centres undefined)
 | 62 nM | 899 nM | CN1CCC(c2cccc3[nH]c(-c4nc(CCc5ccc(Cl)cc5)no4)cc23)CC1

The remaining lines, values behind:

Structure (SMILES) | inhibition [1] | IC50 [2] | IC50 [3]
CN(C)CCc1cccc2[nH]c(-c3nc(CC4CCCCC4)no3)cc12 |  | 440 nM | 
Cc1ccc(CCc2noc(-c3cc4c(CCN(C)C)cccc4[nH]3)n2)cc1 |  | 230 nM | 
CN(C)CCc1cccc2[nH]c(-c3nnn(CCc4ccc(Cl)cc4)n3)cc12 | 46% | > 1000 nM | 
CN(C)CCc1cccc2[nH]c(-c3nc(CCc4cccnc4)no3)cc12 | 1.7% | > 1000 nM | 
CN(C)CCc1cccc2[nH]c(-c3nc(CCC4CC4)no3)cc12 | 29% | > 1000 nM | 
CN1CCN(c2[nH]ccc3nc(-c4nc(CCc5ccc(Cl)cc5)no4)cc2-3)CC1 |  | 40 nM | 199 nM
CN(C)CCc1cccc2[nH]c(-c3nc(CCC4CCCC4)no3)cc12 |  | 580 nM | 
CN(C)CCc1cccc2[nH]c(-c3nc(CCCC4CCCCC4)no3)cc12 |  | 71 nM | 294 nM
COC(C)(C)CCc1noc(-c2cc3c(CCN(C)C)cccc3[nH]2)n1 | 4% | > 1000 nM | 
CN(C)CCc1cccc2[nH]c(-c3nnc(CCc4ccc(Cl)cc4)o3)cc12 | 39% | > 1000 nM | 
CN(C)CCc1cccc2[nH]c(-c3nc(CCc4ccccc4)no3)cc12 | 46% | > 1000 nM | 
COc1ccc(CCc2noc(-c3cc4c(CCN(C)C)cccc4[nH]3)n2)cc1 |  | 560 nM | 
CN(C)CCc1cccc2[nH]c(-c3nc(CCc4ccccn4)no3)cc12 | 11% | > 1000 nM | 
CN(C)CCc1cccc2[nH]c(-c3nc(CCC4CCCCC4)no3)cc12 |  | 140 nM | 
CN(C)CCc1cccc2[nH]c(-c3nc(CCC(C)(C)C)no3)cc12 | 20% | > 1000 nM | 
CCCCc1noc(-c2cc3c(CCN(C)C)cccc3[nH]2)n1 | 42% | > 1000 nM | 
CN(C)CCc1cccc2[nH]c(C(=O)NCCCc3ccc(Cl)cc3)cc12 | 41% | > 1000 nM | 
CN(C)CCc1cccc2[nH]c(-c3nc(CCc4ccc(F)cc4)no3)cc12 |  | 450 nM | 
CN1CCN(c2cccc3[nH]c(-c4nc(CCc5ccc(Cl)cc5)no4)cc23)CC1 |  | 120 nM | 
CN(C)CCc1cccc2[nH]c(-c3nc(CCc4ccncc4)no3)cc12 | 12% | > 1000 nM | 
CN(C)CCc1cccc2[nH]c(-c3nc(CCc4ccc(C(F)(F)F)cc4)no3)cc12 |  | 49 nM | 421 nM
CN(C)CCc1cccc2[nH]c(-c3nc(Cc4ccc(Cl)cc4)no3)cc12 |  | 450 nM | 
CCN(C)CCc1cccc2[nH]c(-c3nc(CCc4ccc(Cl)cc4)no3)cc12 |  | 58 nM | 223 nM
CN(C)CCc1cccc2[nH]c(-c3nc(CCCc4ccc(Cl)cc4)no3)cc12 | 49% | > 1000 nM | 
Clc1ccc(CCc2noc(-c3cc4c(CCN5CCOCC5)cccc4[nH]3)n2)cc1 | 15% | > 1000 nM | 
Clc1ccc(CCc2noc(-c3cc4c(CCN5CCCC5)cccc4[nH]3)n2)cc1 |  | 568 nM | 
CN(C)Cc1cccc2[nH]c(-c3nc(CCc4ccc(Cl)cc4)no3)cc12 |  | 62 nM | 233 nM
CN1CCN(c2cc[nH]c3nc(-c4nc(CCc5ccc(Cl)cc5)no4)cc2-3)CC1 | 27% | > 1000 nM | 
